IC50 data for 23 molecules are collected here from PubChem BioAssay AID743170 (Sanford-Burnham Center for Chemical Genomics, 2013).

Values joined by “and” are separate entries in the source; they are usually repeats but may differ in a detail not shown here. Identical values can stand only once. Active and inactive are the calls of the source.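 How the source made its calls: active means compounds that lower Nile red lipid droplet staining in rat heart muscle cells with dose, giving a fitted IC50; inactive means the rest.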

The assay concerns H9c2 cells, Nile red TAG accumulation, high-content imaging. Put plainly: Nile red lipid droplet reduction, imaging readout – H9c2 cells, high-content screening, dose response (AID 743170).
For `COCCN1Cc2cccc(C(=O)Nc3nc4ccccc4[nH]3)c2C1=O`, the IC50 is > 50000 nM (inactive).

In the case of `O=C(Nc1cccc(-c2nc3ccccc3[nH]2)c1)c1cccc2c1C(=O)N(CCOc1ccccc1)C2`, the IC50 is 793 nM. `COCCN1Cc2cccc(C(=O)Nc3cccc(-c4nc5ccc(Cl)cc5[nH]4)c3)c2C1=O`: the IC50 was 1020 nM. In the case of `CSCCCN1Cc2cccc(C(=O)Nc3cccc(-c4nc5ccccc5[nH]4)c3)c2C1=O` it was 526 nM; in that of `COCCN1Cc2cccc(C(=O)Nc3cccc(-c4nc5ccc(F)cc5[nH]4)c3)c2C1=O`, 762 nM; in that of `COc1ccccc1CCN1Cc2cccc(C(=O)Nc3cccc(-c4nc5ccccc5[nH]4)c3)c2C1=O`, 432 nM. As for `COCCN1Cc2cccc(C(=O)Nc3cccc(-c4nc5ccc(C(F)(F)F)cc5[nH]4)c3)c2C1=O`, the IC50 was 352 nM. For `COCCN1Cc2cccc(C(=O)Nc3cccc(-c4nc5ccccc5[nH]4)c3)c2C1=O` the value was 567 nM and 569 nM and 839 nM; for `COCCN1Cc2cccc(C(=O)NCc3cccc(N(C)C)c3)c2C1=O`, > 50000 nM (inactive); for `O=C(Nc1cccc(-c2nc3ccccc3[nH]2)c1)c1cccc2c1C(=O)N(CCc1ccccc1)C2`, 11200 nM. In the case of `COCCN1Cc2cccc(C(=O)Nc3nc4ccccc4n3C)c2C1=O` it was > 50000 nM (inactive); in that of `COCCn1cnc2cccc(C(=O)Nc3cccc(-c4nc5ccccc5[nH]4)c3)c2c1=O`, > 50000 nM (inactive). In the case of `COc1ccc(CCN2Cc3cccc(C(=O)Nc4cccc(-c5nc6ccccc6[nH]5)c4)c3C2=O)cc1OC` it was 829 nM; in that of `COCCN1Cc2cccc(C(=O)Nc3cccnc3)c2C1=O`, > 50000 nM (inactive); in that of `O=C(Nc1cccc(-c2nc3ccccc3[nH]2)c1)c1cccc2c1C(=O)N(CCN1CCOCC1)C2`, 1750 nM.

Take `COCCN1Cc2cccc(C(=O)Nc3cccc(C(=O)Nc4ccccc4OC)c3)c2C1=O`: the IC50 was 2490 nM. For `COCCCN1Cc2cccc(C(=O)Nc3cccc(-c4nc5ccccc5[nH]4)c3)c2C1=O`, the IC50 was 1370 nM. On to `O=C(Nc1cccc(-c2nc3ccccc3[nH]2)c1)c1cccc2c1C(=O)N(CC1CC1)C2`, for which the IC50 is 662 nM. In the case of `COCCN1Cc2cccc(C(=O)Nc3cccc(C(=O)Nc4ccccc4)c3)c2C1=O` it was 2330 nM; in that of `CCCCN1Cc2cccc(C(=O)Nc3cccc(-c4nc5ccccc5[nH]4)c3)c2C1=O`, 760 nM; in that of `CCOCCN1Cc2cccc(C(=O)Nc3cccc(-c4nc5ccccc5[nH]4)c3)c2C1=O`, 792 nM. As for `CCOC(=O)c1cccc(NC(=O)c2cccc3c2C(=O)N(CCOC)C3)c1`, the IC50 is > 50000 nM (inactive).

As to `COCCN1Cc2cccc(C(=O)Nc3cccc(-c4nc5ccc(C)cc5[nH]4)c3)c2C1=O`, the IC50 is 393 nM.

The term IC50 denotes the point on the concentration scale where inhibition reaches its midpoint.
